# From publication PMC7026480, “Discovery of Multitarget-Directed Ligands Against Influenza A Virus From Compound Yizhihao Through a Predictive System for Compound-Protein Interactions” (Frontiers in Cellular and Infection Microbiology, 2020)
# Like-named read-outs stand apart in the source and are kept apart here.
# Tests used:
# [1] = target: neuraminidase (NA) of A/HebeiXinhua/SWL1106/2017 (oseltamivir- and amantadine-resistant H1N1); format: biochemical, influenza A virus; conditions: read-out: IC50, NA inhibition test, A/HebeiXinhua/SWL1106/2017
# [2] = target: neuraminidase (NA) of A/FujianXinluo/SWL2457/2014 (amantadine-resistant H1N1); format: biochemical, influenza A virus; conditions: read-out: IC50, NA inhibition test, A/FujianXinluo/SWL2457/2014
# [3] = tested on: A/FujianXinluo/SWL2457/2014 (amantadine-resistant H1N1); experiment: microbe, parasite or virus in culture; format: cell-based; conditions: Influenza A virus, H1N1, MDCK
# [4] = tested on: wild-type and resistant IAV strains; experiment: microbe, parasite or virus in culture; format: cell-based, influenza A virus; conditions: for IC50: Influenza A virus, read-out: IC50, protective effects for cells infected with the resistant IAV strains (CPE)
# [5] = tested on: A/HebeiXinhua/SWL1106/2017 (oseltamivir- and amantadine-resistant H1N1); experiment: microbe, parasite or virus in culture; format: cell-based, influenza A virus
# [6] = read-out: IC50, CPE reduction, A/FujianXinluo/SWL2457/2014, Drug administration after virus inoculation
# [7] = read-out: IC50, CPE reduction, A/FujianXinluo/SWL2457/2014, Pre-incubation of virus and drug
# [8] = read-out: IC50, CPE reduction, A/FujianXinluo/SWL2457/2014, Simultaneous action of virus and drug
# [9] = read-out: IC50, CPE reduction, A/FujianXinluo/SWL2457/2014, Virus inoculation after drug administration
# [10] = Influenza A virus, H1N1, MDCK, read-out: IC50, CPE reduction, A/HebeiXinhua/SWL1106/2017, Drug administration after virus inoculation
# [11] = Influenza A virus, H1N1, MDCK, read-out: IC50, CPE reduction, A/HebeiXinhua/SWL1106/2017, Pre-incubation of virus and drug
# [12] = Influenza A virus, H1N1, MDCK, read-out: IC50, CPE reduction, A/HebeiXinhua/SWL1106/2017, Simultaneous action of virus and drug
# [13] = Influenza A virus, H1N1, MDCK, read-out: IC50, CPE reduction, A/HebeiXinhua/SWL1106/2017, Virus inoculation after drug administration
# [14] = read-out: IC50, dual-oseltamivir and amantadine-resistant H1N1 CPE assay, all modes except for drug administration after viral infection
SMILES,IC50 [1] [µM],IC50 [2] [µM],"IC50 [3, 6] [µM]","IC50 [3, 7] [µM]","IC50 [3, 8] [µM]","IC50 [3, 9] [µM]",IC50 [4] [µM],"IC50 [5, 10] [µM]","IC50 [5, 11] [µM]","IC50 [5, 12] [µM]","IC50 [5, 13] [µM]","IC50 [5, 14] [µM]",inhibition of virus-induced CPE [4],"IC50, dual-oseltamivir and amantadine-resistant H1N1 CPE assay, in the modes tested [5]","IC50 ([5]; Influenza A virus, H1N1, MDCK, read-out: IC50, dual-oseltamivir and amantadine-resistant H1N1 CPE assay, in the modes tested) [µM]"
C=C(C(=O)O)[C@H]1CC[C@H](C)[C@@H]2CC(=O)C(C)=C2C1 (stereo in doubt) [Rupestonic acid],> 100,> 100,–,–,–,–,–,–,–,–,–,–,–,–,–
O=c1cc(-c2ccc(O)cc2)oc2cc(O)cc(O)c12 [Apigenin],–,–,28.1 ± 2.37,32.1 ± 4.13,40.5 ± 4,36.5 ± 5.79,< 100,> 100,31.6 ± 10.3,35.4 ± 3.98,39 ± 3.82,< 100,–,–,–
O=C(/C=C/c1ccc(O)c(O)c1)O[C@@H]1C[C@](O)(C(=O)O)C[C@@H](O)[C@H]1O [Chlorogenic acid],> 100,> 100,–,–,–,–,–,–,–,–,–,–,no inhibition of virus-induced CPE,–,–
C=C[C@@H]1CNC(=S)O1 [Epigoitrin],> 100,> 100,–,–,–,–,–,–,–,–,–,–,–,–,–
O=c1cc(-c2ccc(O)c(O)c2)oc2cc(O)cc(O)c12 [Luteolin],–,–,31.9 ± 1.99,1.14 ± 1.02,24.9 ± 9.62,> 100,< 100,> 100,15.2 ± 4.46,20.1 ± 10.6,47.2 ± 7.14,< 100,–,–,–
O=c1cc(-c2ccc(O)c(O)c2)oc2c([C@@H]3O[C@H](CO)[C@@H](O)[C@H](O)[C@H]3O)c(O)cc(O)c12 [Orientin],> 100,> 100,–,–,–,–,–,–,–,–,–,–,no inhibition of virus-induced CPE,–,–
"CCOC(=O)C1=C[C@@H](OC(CC)CC)[C@H](NC(C)=O)[C@@H](N)C1 [Oseltamivir, oseltamivir phosphate, reference compound]",–,–,86.9 ± 7.8,25.4 ± 8.32,25.5 ± 8.36,> 100,–,> 100,> 100,> 100,> 100,–,–,no effect,–
O=c1c(O)c(-c2ccc(O)c(O)c2)oc2cc(O)cc(O)c12 [Quercetin],–,–,20.7 ± 14.7,7.73 ± 3.04,37.1 ± 18.2,86.1 ± 13.8,< 100,> 100,6.93 ± 4.6,14.6 ± 1.8,19.1 ± 1.95,< 100,–,–,–
"NC(=O)c1ncn([C@@H]2O[C@H](CO)[C@@H](O)[C@H]2O)n1 [Ribavirin, ribavirin, reference compound]",–,–,25.9 ± 14.6,24.6 ± 3.1,26.2 ± 2.4,86.7 ± 9.8,–,57.9 ± 10.5,29.8 ± 6.4,36.2 ± 13.7,39.9 ± 9.71,–,–,–,29.8 to 57.9
